Measurements as given in US8921318B2, “Application of initial doses of LHRH analogues and maintenance doses of LHRH antagonists for the treatment of hormone-dependent cancers and corresponding pharmaceutical kits” (Aeterna Zentaris GmbH, priority 2006, dated 2014).

Key:
testosterone levels = test: Testosterone levels in prostate cancer patients under initial dose / maintenance dose treatment; assay type: in vivo, human; details: for testosterone levels during first period: prostate cancer patients
Procedure: (§1) 130 mg ozarelix is given as a single monthly initial dose per i.m. injection every 4 weeks to patients suffering from prostate cancer for a first period of 3 months. […] Subsequently, patients are treated with single monthly maintenance doses of 30 mg ozarelix given per i.m. injection over a period of 6 months. […] The treatment scheme is then repeated continuously (chronic treatment).
(§2) 200 mg ozarelix is given as a single initial dose per i.m. injection once every 3 months to patients suffering from prostate cancer for a first period of 3 to 6 months. […] Subsequently, patients are treated with single monthly maintenance doses of 40 mg ozarelix given per i.m. injection over a period of 6 months. […] The treatment scheme is then repeated continuously (chronic treatment).
as §1, with “3.75” for “130”, “leuprorelin (leuprolide) are” for “ozarelix is”, “6” for “3”, “20” for “30”, “9” for “6”
as §2, with “11.25” for “200”, “leuprorelin (leuprolide) are” for “ozarelix is”, “three” for “3”, “3” for “3 to 6”, “50” for “40”, “3” for “6”

[1] = system: Prostate Specific Antigen (PSA); test: PSA levels in prostate cancer patients under initial dose / maintenance dose treatment; assay type: in vivo, human; details: for PSA levels decrease during first period: prostate cancer patients
Procedure: as §1, §2
as §1, with “3.75” for “130”, “leuprorelin (leuprolide) are” for “ozarelix is”, “6” for “3”, “20” for “30”, “9” for “6”
as §2, with “11.25” for “200”, “leuprorelin (leuprolide) are” for “ozarelix is”, “three” for “3”, “3” for “3 to 6”, “50” for “40”, “3” for “6”

[2] = Example 3: 3.75 mg leuprorelin i.m. single monthly initial dose every 4 weeks, first period 6 months
[3] = Example 4: 11.25 mg leuprorelin i.m. single initial dose once every three months, first period 3 months
[4] = Example 1: 130 mg ozarelix i.m. single monthly initial dose every 4 weeks, first period 3 months
[5] = Example 1: monthly maintenance doses of 30 mg ozarelix i.m. over 6 months, after 130 mg ozarelix initial doses
[6] = Example 2: 200 mg ozarelix i.m. single initial dose once every 3 months, first period 3 to 6 months
[7] = Example 2: monthly maintenance doses of 40 mg ozarelix i.m. over 6 months, after 200 mg ozarelix initial doses
[8] = Example 3: monthly maintenance doses of 20 mg ozarelix i.m. over 9 months, after 3.75 mg leuprorelin initial doses
[9] = Example 4: monthly maintenance doses of 50 mg ozarelix i.m. over 3 months, after 11.25 mg leuprorelin initial dose

Compound: CCNC(=O)[C@@H]1CCCN1C(=O)[C@H](CCCNC(=N)N)NC(=O)[C@H](CC(C)C)NC(=O)[C@@H](CC(C)C)NC(=O)[C@H](Cc1ccc(O)cc1)NC(=O)[C@H](CO)NC(=O)[C@H](Cc1c[nH]c2ccccc12)NC(=O)[C@H](Cc1c[nH]cn1)NC(=O)[C@@H]1CCC(=O)N1 [leuprorelin]
- testosterone levels during first period (testosterone levels; [2]): quickly reach castration level
- testosterone levels during first period (testosterone levels; [3]): quickly reach castration level
- PSA levels decrease during first period [1, 2]: up to 95%
- PSA levels decrease during first period [1, 3]: up to 95%

Compound: ozarelix
- testosterone levels during first period (testosterone levels; [4]): quickly reach castration level
- testosterone levels during second period (testosterone levels; [5]): above 0.5 ng/mL
- testosterone levels during first period (testosterone levels; [6]): quickly reach castration level
- testosterone levels during second period (testosterone levels; [7]): above 0.5 ng/mL
- testosterone levels during second period (testosterone levels; [8]): above 0.5 ng/mL
- testosterone levels during second period (testosterone levels; [9]): above 0.5 ng/mL
- PSA levels decrease during first period [1, 4]: up to 95%
- PSA levels during second period [1, 5]: remain stably low until the end of the second period
- PSA levels decrease during first period [1, 6]: up to 95%
- PSA levels during second period [1, 7]: remain stably low until the end of the second period
- PSA levels during second period [1, 8]: remain stably low until the end of the second period
- PSA levels during second period [1, 9]: remain stably low until the end of the second period
